Results on one molecule are retold here after ChEMBL document CHEMBL5729418, “Compounds and methods useful in the treatment of a PRMT5-mediated disorder” (2022).

In the experiment the target is PRMT5/MEP50 complex (Homo sapiens, UniProt O14744). Put plainly: Chemiluminescent Assay: A PRMT5 chemiluminescent assay was used to measure the IC50 activity of PRMT5 of the compounds of Examples 1A to 7 above. Biotinylated histone peptides were synthesized and attached to 384-well plates. Compound serial dilutions were performed and added to the assay plate. Histone H4 monomethyl R3 antibody was obtained from Abcam. A master mix for each well was prepared and human PRMT5/MEP50 (expressed in HEK293 cells) diluted in assay buffer to a concentration of 5 ng/μL. The reaction was incubated and slowly rotated for 60 minutes at the point of PRMT5/MEP50 addition. The supernatant from the wells was removed and blocking buffer was added to each well and rotated for 10 minutes. The primary antibody was diluted and added to every well for 60 minutes, before it was removed and the wells washed. The horse raddish peroxidase (HRP)-coupled secondary antibody was diluted and added to each well with an incubation time of 30 minutes. The HRP chemiluminescent substrate was added to every well. The plate was read on a Flourstar Omega BMG Labtech instrument (Ortenberg, Germany) and the analysis of IC50 was performed using the Flourstar Omega BMG Labtech software. In kind it is cell-based.
PRMT5/MEP50 complex, sequence (O14744 whole entry): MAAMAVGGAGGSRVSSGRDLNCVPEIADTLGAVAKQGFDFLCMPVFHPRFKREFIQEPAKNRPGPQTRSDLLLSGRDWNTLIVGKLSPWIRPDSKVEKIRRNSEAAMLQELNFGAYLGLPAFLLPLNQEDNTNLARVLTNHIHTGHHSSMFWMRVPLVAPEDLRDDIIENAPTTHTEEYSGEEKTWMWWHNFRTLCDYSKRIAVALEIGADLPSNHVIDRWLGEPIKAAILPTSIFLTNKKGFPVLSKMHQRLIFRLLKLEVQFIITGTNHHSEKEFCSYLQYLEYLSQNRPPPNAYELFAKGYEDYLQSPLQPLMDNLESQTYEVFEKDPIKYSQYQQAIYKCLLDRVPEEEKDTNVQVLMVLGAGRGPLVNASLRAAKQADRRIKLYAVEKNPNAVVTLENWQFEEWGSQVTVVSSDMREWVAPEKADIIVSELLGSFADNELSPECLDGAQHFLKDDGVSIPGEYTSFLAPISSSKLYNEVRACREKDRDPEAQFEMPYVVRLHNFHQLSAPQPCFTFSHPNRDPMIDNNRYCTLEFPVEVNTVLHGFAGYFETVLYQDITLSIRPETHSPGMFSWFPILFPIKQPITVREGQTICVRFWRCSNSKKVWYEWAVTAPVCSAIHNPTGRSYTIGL
PRMT5/MEP50 complex, sequence (Q9BQA1 whole entry, further chain): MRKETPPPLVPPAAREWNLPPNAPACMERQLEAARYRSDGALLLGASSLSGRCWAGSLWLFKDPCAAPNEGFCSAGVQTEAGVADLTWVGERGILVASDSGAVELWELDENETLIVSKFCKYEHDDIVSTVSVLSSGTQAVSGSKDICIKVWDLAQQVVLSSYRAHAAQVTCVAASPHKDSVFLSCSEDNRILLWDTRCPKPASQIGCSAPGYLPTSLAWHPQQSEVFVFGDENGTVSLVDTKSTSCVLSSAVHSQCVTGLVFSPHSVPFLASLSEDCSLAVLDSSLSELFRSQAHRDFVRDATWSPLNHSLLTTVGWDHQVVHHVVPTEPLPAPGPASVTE

Broadly, the IC50 is the point on the concentration scale where inhibition reaches its midpoint. Read a low IC50 as inhibition by little substance. Molecule `O=C(OCC(O)CN1CCc2ccccc2C1)N1CCCC(c2ccccc2)C1` (stereo unspecified) showed a half-maximal inhibitory concentration (IC50) of 75 nM.
